Reference: patent US20100004267A1, “LIQUID PREPARATION” (ASUBIO PHARMA CO., LTD., priority 2006, published 2010)
Read-outs that look alike come from different tables or passages of the source.

Tests used:
Format in all cases: physicochemical
[1] = Examination of solubilizing agent: solubility of SUN N8075 (Test example 1); details: for solubility at 30 min: phosphate-buffered saline with solubilizing agent, 24 °C, kinetic from dmso stock, read-out: Concentration (solubility of SUN N8075)
Protocol: 8 mg/mL aqueous solution of SUN N8075 was prepared. On the other hand, for each solubilizing agent, an aqueous solution having approximately 0.4% of solubilizing agent was prepared.
10 mL of SUN N8075 aqueous solution and 10 mL of solution of each solubilizing agent were mixed to give Mixture A, and Mixture A was filtered through a filter of 0.22 μm.
6.24 g of sodium dihydrogen phosphate and 16.4 g of sodium chloride were weighed and water was added to make the volume precisely 1,000 mL. To this solution, 1 mol/L sodium hydroxide test solution was added dropwise and the pH value was adjusted to 7.4, which was named Mixture B.
Mixture of each 2.5 mL of Mixture A and Mixture B was provided as a test solution (in each test solution, the concentration of SUN N8075 corresponds to 2 mg/mL, and the concentration of solubilizing agent corresponds to 0.1%).
As for a solubilizing agent of which degree of improving solubility of SUN N8075 was high, tests with concentrations of the added solubilizing agent varied were additionally executed in accordance with the method as described above.

[2] = Examination on two-component antioxidant sodium bisulfite/L-cysteine hydrochloride monohydrate (Test example 6)
Protocol: According to the formulation of Tables 7 and 8, to 100-150 mL of purified water, sodium bisulfite (Japanese Pharmacopoeia; available from JUNSEI CHEMICAL), L-cysteine hydrochloride monohydrate (available from Nacalai Tesque), and SUN N8075 were added and dissolved in this order, and the volume was made precisely to 200 mL by addition of purified water.
After filtering under reduced pressure, the solution was bubbled with nitrogen gas for 5 minutes (not executed for the case “without nitrogen gas replacement”), and 20 mL of the solution was immediately filled into a brown ampule (Silicoat ampule, brown, 20 mL capacity, available from FUJI GLASS CO., LTD.) replaced with nitrogen gas (not executed for the case “without nitrogen gas replacement”), and then the ampule was sealed. Using autoclave (FLC-M09S30WZ, available from SAKURA SEIKI Co., Ltd.), autoclave sterilization was conducted in a setting condition: 121° C./24 minutes.
For each sample, insoluble foreign matters and odor were evaluated.
Evaluation of insoluble foreign matters was conducted using an appearance checker (under 1,000 Lux).
Also dissolved oxygen concentration in solution was measured.

[3] = Examination of properties of SUN N8075 itself; details: pH around neutrality
[4] = Reduction in surface activity in SUN N8075 aqueous solution (Test example 7); set-up: key: A: In 20 minutes; B: In 60 minutes; C: 60 minutes to 3 days; D: Comparable to Control
Protocol: (§1) Into each test compound solution which was prepared in advance to achieve each adding concentration shown in the Table, SUN N8075 was added and dissolved so that the concentration thereof was 5 mg/mL, and the pH value was adjusted to 3 to 4 as appropriate by hydrochloric acid to prepare a sample solution.
(§2) Each 10 mL of sample solution was put into a 10-mL stoppered test tube, and shaken 30 strokes vertically by hand and allowed to stand upright, and under room diffused light, appearance of sample solution after shaking, foaming property (foaming quantity), defoaming time, post standing observation (after standing for 3 days or more) were evaluated.
(§3) As a control, an aqueous solution containing no test substance but containing 5 mg/mL of SUN N8075 was examined in a similar manner.

[5] = as above; set-up: key: A: Much less foaming than Control; B: Clearly less foaming than Control; Slightly less foaming than Control; D: Comparable to Control; E: More foaming than Control
Protocol: as §1, §2, §3

[6] = sodium bisulfite 0.05% (0.1 g), L-cysteine HCl monohydrate 0.05 g (ratio 1/2), N2 done, dissolved oxygen 0.91 ppm
[7] = sodium bisulfite 0.05% (0.1 g), L-cysteine HCl monohydrate 0.1 g (ratio 1/1), N2 done, dissolved oxygen 0.88 ppm
[8] = sodium bisulfite 0.075% (0.15 g), L-cysteine HCl monohydrate 0.1 g (ratio 2/3), N2 done, dissolved oxygen 1.66 ppm
[9] = sodium bisulfite 0.075% (0.15 g), L-cysteine HCl monohydrate 0.5 g (ratio 1/1), N2 done, dissolved oxygen 0.97 ppm
[10] = sodium bisulfite 0.1% (0.2 g), L-cysteine HCl monohydrate 0.1 g (ratio 1/2), N2 done, dissolved oxygen 1.27 ppm
[11] = sodium bisulfite […] (0.05 g), L-cysteine HCl monohydrate 0.05 g (ratio 1/1), N2 done, dissolved oxygen 0.82 ppm

Compound: Cc1cc(OC[C@@H](O)CN2CCN(c3ccc(Cc4ccc(F)cc4)cc3)CC2)c(C)c(C)c1N [SUN N8075, (2S)-1-(4-amino-2,3,5-trimethylphenoxy)-3-{4-[4-(4-fluorobenzyl)phenyl]-1-piperazinyl}-2-propanol dimethane sulfonate]
- Appearance of solution ([1]; Glycerin 0.1%, pH 6.8): colorless and clear
- Appearance of solution ([1]; HCO-60 0.1%, pH 6.8): colorless and clear
- Appearance of solution ([1]; HCO-60 0.2%, pH 6.9): colorless and clear
- Appearance of solution ([1]; HCO-60 0.5%, pH 6.8): colorless and clear
- Appearance of solution ([1]; Human serum albumin 0.1%, pH 6.8): colorless and clear
- Appearance of solution ([1]; Macrogol 4000 0.1%, pH 6.8): colorless and clear
- Appearance of solution ([1]; Mannitol 0.1%, pH 6.8): colorless and clear
- Appearance of solution ([1]; Nicotinic amide 0.1%, pH 6.8): colorless and clear
- Appearance of solution ([1]; No additive, pH 6.8): colorless and clear
- Appearance of solution ([1]; Propylene glycol 0.1%, pH 6.9): colorless and clear
- Appearance of solution ([1]; Tween80 0.1%, pH 6.8): clouded
- Appearance of solution ([1]; Tween80 0.2%, pH 6.8): clouded
- Appearance of solution ([1]; Tween80 0.5%, pH 6.8): clouded
- Appearance of solution ([1]; Tween80 1.0%, pH 6.8): colorless and clear
- solubility at 30 min ([1]; pH 6.5, aqueous with cosolvent or surfactant or cyclodextrin, β-Cyclodextrin derivative 10%, pH 6.5): 4850 µg/mL
- solubility at 30 min ([1]; pH 6.8, aqueous with cosolvent or surfactant or cyclodextrin, HCO-60 0.5%, pH 6.8): 395 µg/mL
- solubility at 30 min ([1]; pH 6.8, aqueous with cosolvent or surfactant or cyclodextrin, HCO-60 (polyoxyethylene hardened castor oil) 0.1%, pH 6.8): 184 µg/mL
- solubility at 30 min ([1]; pH 6.8, aqueous with cosolvent or surfactant or cyclodextrin, Human serum albumin 0.1%, pH 6.8): 14 µg/mL
- solubility at 30 min ([1]; pH 6.8, aqueous with cosolvent or surfactant or cyclodextrin, Tween80 0.1%, pH 6.8): 745 µg/mL
- solubility at 30 min ([1]; pH 6.8, aqueous with cosolvent or surfactant or cyclodextrin, Tween80 0.2%, pH 6.8): 1830 µg/mL
- solubility at 30 min ([1]; pH 6.8, aqueous with cosolvent or surfactant or cyclodextrin, Tween80 0.5%, pH 6.8): 1790 µg/mL
- solubility at 30 min ([1]; pH 6.8, aqueous with cosolvent or surfactant or cyclodextrin, Tween80 1.0%, pH 6.8): 1820 µg/mL
- solubility at 30 min ([1]; pH 6.8, aqueous with cosolvent or surfactant or cyclodextrin, β-Cyclodextrin derivative 0.5%, pH 6.8): 98 µg/mL
- solubility at 30 min ([1]; pH 6.8, aqueous with cosolvent or surfactant or cyclodextrin, β-Cyclodextrin derivative 1.0%, pH 6.8): 240 µg/mL
- solubility at 30 min ([1]; pH 6.9, aqueous with cosolvent or surfactant or cyclodextrin, HCO-60 0.2%, pH 6.9): 334 µg/mL
- solubility at 30 min ([1]; pH 6.9, aqueous with cosolvent or surfactant or cyclodextrin, β-Cyclodextrin 0.1%, pH 6.9): 26 µg/mL
- solubility at 30 min ([1]; pH 6.9, aqueous with cosolvent or surfactant or cyclodextrin, β-Cyclodextrin derivative 5.0%, pH 6.9): 1420 µg/mL
- Appearance of solution ([1]; β-Cyclodextrin 0.1%, pH 6.9): colorless and clear
- Appearance of solution ([1]; β-Cyclodextrin derivative 0.5%, pH 6.8): colorless and clear
- Appearance of solution ([1]; β-Cyclodextrin derivative 1.0%, pH 6.8): colorless and clear
- Appearance of solution ([1]; β-Cyclodextrin derivative 5.0%, pH 6.9): colorless and clear
- Appearance of solution ([1]; β-Cyclodextrin derivative 10%, pH 6.5): colorless and clear
- Appearance of solution ([1]; β-Cyclodextrin derivative (β-cyclodextrin sulfobutyl ether sodium salt) 0.1%, pH 6.8): colorless and clear
- Amount of insoluble matters/after sterilization ([2]; sodium bisulfite 0.05% (0.1 g), L-cysteine HCl monohydrate 0.03 g (ratio 3/10), N2 done, dissolved oxygen 1.85 ppm): bit
- Amount of insoluble matters/after sterilization [2, 6]: great
- Odor/After sterilization [2, 6]: Sulfur-
- Amount of insoluble matters/after sterilization [2, 7]: great
- Odor/After sterilization [2, 7]: Sulfur-
- Amount of insoluble matters/after sterilization ([2]; sodium bisulfite 0.05% (0.1 g), no L-cysteine HCl monohydrate, N2 done, dissolved oxygen 0.82 ppm): bit
- Amount of insoluble matters/after sterilization ([2]; sodium bisulfite 0.075% (0.15 g), L-cysteine HCl monohydrate 0.05 g (ratio 1/3), N2 done, dissolved oxygen 1.39 ppm): Bit
- Amount of insoluble matters/after sterilization [2, 8]: great
- Odor/After sterilization [2, 8]: Sulfur-
- Amount of insoluble matters/after sterilization [2, 9]: great
- Odor/After sterilization [2, 9]: Sulfur-
- Amount of insoluble matters/after sterilization ([2]; sodium bisulfite 0.075% (0.15 g), no L-cysteine HCl monohydrate, N2 done, dissolved oxygen 1.24 ppm): bit
- Amount of insoluble matters/after sterilization [2, 10]: great
- Odor/After sterilization [2, 10]: Sulfur
- Amount of insoluble matters/after sterilization ([2]; sodium bisulfite 0.1% (0.2 g), no L-cysteine HCl monohydrate, N2 done, dissolved oxygen 1.39 ppm): bit
- Amount of insoluble matters/after sterilization ([2]; sodium bisulfite 0.1% (0.2 g), no L-cysteine HCl monohydrate, N2 not done, dissolved oxygen 5.14 ppm): bit
- Amount of insoluble matters/after sterilization ([2]; sodium bisulfite […] (0.05 g), L-cysteine HCl monohydrate 0.015 g (ratio 3/10), N2 done, dissolved oxygen 1.88 ppm): Bit
- Amount of insoluble matters/after sterilization [2, 11]: great
- Odor/After sterilization [2, 11]: Sulfur-
- Amount of insoluble matters/after sterilization ([2]; sodium bisulfite […] (0.05 g), no L-cysteine HCl monohydrate, N2 done, dissolved oxygen 0.52 ppm): bit
- Solubility [3]: very low
- Defoaming time ([4]; Chlorobutanol 0.50%): C
- Defoaming time ([4]; Chlorobutanol […]): C
- Defoaming time ([4]; Ethanol 1.00%): C
- Defoaming time ([4]; Glycine 100 mM): C
- Defoaming time ([4]; Meglumine 25 mM): C
- Defoaming time ([4]; Methane sulfonic acid 15 mM): C
- Defoaming time ([4]; Propylene glycol 1.00%): C
- Defoaming time ([4]; Sodium L-glutamate 30 mM): C
- Defoaming time ([4]; Sodium chloride 50 mM): C
- Defoaming time ([5]; Chlorobutanol 0.10%): D
- Defoaming time ([5]; Sodium chloride 25 mM): D
